Reference: patent publication US5707821A, “Identification of phospholipase A2 inhibitors in Aβ peptide-mediated neurodegenerative disease” (priority 1995, dated 1998)

Tests used:
[1] = tested on: IL-1β release by cultured human cortical microglia; assay: IL-1 release from LPS-stimulated human cortical microglia; format: cell-based
Procedure: Cultures of human cortical or hippocampal astrocytes and microglia were prepared using a modification of the procedure described for cortical neurons. Cortical tissue from fetuses of 16 to 20 weeks of gestation was washed 3 times in Ca^2+ /Mg^2+ free Hanks balanced salt solution (CMF HBSS) and then dissociated by repeated pipetting. The solution was brought to a final volume of 80 ml CMF HBSS for approximately 10 ml of tissue. DNase (Sigma) was added to a final concentration of 0.05 mg/ml. 20 ml of the solution was passed through one 100 μm nylon cell strained (Falcon). The cells were then centrifuged for 5 minutes at 200×G in an IEC Clinical Centrifuge and resuspended in a trypsin/EDTA solution (0.05% trypsin+0.53 mM EDTA in HBSS; Gibco) and incubated for 20 minutes at 37°C. (10 ml of trypsin was added per 2-3 ml of tissue). The trypsin was then inactivated by adding (MEM/FBS): Modified Eagle's Medium (MEM) containing 1% glucose, 1 mM sodium pyruvate, 1 mM glutamine, and supplemented with 10% fetal bovine serum (JRH). After adding a final concentration of 0.05 mg/ml DNase the cells were resuspended and then pelleted by centrifugation and resuspended in MEM/FBS. 1.6×10^8 cells were seeded in a T-150 tissue culture flask coated with polyethyleneimine (PEI). (10% PEI (Sigma) was diluted 1:10 in H2 O, filtered through a […] unit and then diluted into 150 mM sodium borate pH 8.5 at 1:100. The flasks were coated overnight at room temperature, washed two times in PBS and coated with 20 ml/flask of MEM/FBS at 37° C. for at least one hour prior to plating cells.) Cultures were maintained in a H2 O-saturated incubator with an atmosphere of 95% air/5% CO2 at 37° C. The culture medium was changed one and four days after plating and the cultures were then left undisturbed for at least one week. After approximately two weeks in vitro, the flasks were gently shaken and floating microglia were collected and centrifuged for 5 minutes at 200×G in an IEC Clinical Centrifuge. The microglia were reseeded in 96 well tissue culture plates at a density of 5,000-40,000 cells/well in 125 μl in MEM/FBS. Astrocyte cultures were prepared by multiple passaging of the established mixed brain cell cultures. Each T-150 was incubated for 3-4 minutes at 37°C. with a trypsin/EDTA solution (see above). The trypsin was then inactivated by adding MEM/FBS. The cells were triturated and then pelleted by centrifugation and resuspended in MEM/FBS. The cells from one T-150 were seeded at a 1:30 to 1:5 dilution in T-150's not coated. Just prior to confluency the cells were repassaged by trypsinization as described above. This process was repeated until the cultures were >98% pure astrocytes.
The effects of the benzenesulfonamide PLA2 inhibitor AN20606 and the selective cytosolic PLA2 inhibitor arachidonyl trifluoromethyl ketone (AN20579) were examined in cultured human cortical microglia for their selectivity for inhibiting microglia activation mediated by amyloid-βpeptide and lipopolysaccharides (LPS). LPS are a major constituent of the cell wall of gama-negative bacteria and are extensively used for generating inflammatory responses in cultured cells and in vivo.

human cortical neurons = assay: Aβ neurotoxicity / survival of human cortical neurons (alamarBlue), compound added at time of Aβ1-40; format: cell-based
Procedure: Cultures of human cortical or hippocampal neurons were prepared using a modification of the procedure described in P. Seubert et al. (1992), Nature 359:325-327. Cortical or hippocampal tissue was dissociated by incubation in a trypsin/EDTA solution (0.05% trypsin +0.53 mM EDTA in HBSS; Gibco) for 20 minutes at 37° C. The trypsin was then inactivated by resuspending the cells in serum-containing medium (MEM/FBS): Modified Eagle's Medium (MEM) containing 1% glucose, 1 mM sodium pyruvate, 1 mM glutamine, and supplemented with 10% fetal bovine serum (Gibco). Cells were then pelleted by centrifugation and resuspended in a chemically-defined medium (MEM/B27): MEM containing B27 supplement (Gibco) in place of FBS. Polyethyleneimine (PEI)-coated 6.4-mm (96-well) dishes were rinsed once with MEM/FBS, and then seeded at 0.75-1.25×10^5 cells per well in 0.1 ml MEM/B27. Cultures were maintained in a H2 O-saturated incubator with an atmosphere of 95% air/5% CO2 at 37° C. The culture medium was exchanged twice weekly.
Amyloid-β (Aβ) stock solutions were prepared as 1 mM stocks in sterile ddH2 O immediately prior to addition to cultures. Rat cortical neurons were exposed to Aβ by removing the culture medium and replacing it with DMEM/N2 or DMEM/B27 containing Aβ1-40. Human cortical neurons were exposed to Aβ by removing the culture medium and replacing it with MEM, MEM/N2, or MEM/B27 containing Aβ1-40. Cultures were maintained for 2-4 days before neuronal survival was quantified using alamarBlue™.
The alamarBlue™ assay incorporated a proprietary fluorometric/colorimetric metabolic indicator (Alamar Biosciences, Inc.). Viable cells convert alamarBlue™ from an oxidized (non-fluorescent, blue) form to a reduced (fluorescent, red) form. Assays were performed by replacing the culture media with a 10% alamarBlue™ solution in DMEM (rat cortical cultures) or MEM (human cortical cultures). Reduction of alamarBlue™ was determined spectrofluorometrically using a Millipore Cytofluor 2350 Scanner (excitation, […]; emission, 590 nm) and CytoCalc™ software (Millipore Corporation).
The effect of the two benzenesulfonamide inhibitors of PLA2 in Example 2 were examined to determine the dose-dependence of their effect on neuronal survival in human cortical neuron cultures exposed to 0 μM, 25μM, or 50 μM of Aβ1-40 and varying doses of the benzenesulfonamide.
Human cortical neurons were treated with 50 μM Aβ1-40 and various inhibitors of PLA2 or PLC. Compounds were added at the time of Aβ1-40 treatment at concentrations 390 nM to 100 μM. Compounds were also added to neuronal cultures in the absence of Aβ1-40. Neuronal survival was determined after 3 days of treatment by alamarBlue®. IC50 is the dose of compound that inhibited Aβ-mediated neurotoxicity by 50%. […] Data represents the mean ± SD (n=3). ND, not detected at the concentration range used.

CN(C(=O)/C=C/c1ccc(S(C)(=O)=O)cc1)c1ccc(S(=O)(=O)NC2CCCCCC2)cc1 [AN20606, N-cycloheptyl-4-[N-methyl-N-[(E)-3-(4-methylsulfonylphenyl)-2-propenoyl]amino]benzenesulfonamide]
IL-1 Released ([1]; 10 ng/ml LPS, inhibitor 20 μM where present): 37 ± 0.3 pg/mL | activity at 20 µM ([1]; Homo sapiens, Microglia, 10 ng/ml LPS + 20 μM inhibitor, read-out: IL-1 Released, percent in parentheses (relative to LPS alone)): 163% | LPS-mediated cytokine release, IL-1 (in words) ([1]; LPS stimulation): actually enhanced | neuronal survival in the presence of pathogenic Aβ peptide (in words) (human cortical neurons; 0, 25 or 50 μM Aβ1-40, varying doses, FIG. 3, FIG. 4): dose-dependent increase in neuronal survival | Max Inh (human cortical neurons; 50 μM Aβ1-40, compound 390 nM to 100 μM added at time of Aβ, 3 days, n=3): 80% | IC50 (human cortical neurons; Homo sapiens, Cortical neurone, 72 h, 50 μM Aβ1-40, compound 390 nM to 100 μM added at time of Aβ, 3 days, n=3, ND = not detected at the concentration range used, read-out: IC50 (dose that inhibited Aβ-mediated neurotoxicity by 50%)): 5 µM
